Reference: patent US20190183100A1, “ANIMAL MODELS FOR POLYCYSTIC KIDNEY DISEASE” (Recombinetics, Inc., priority 2017, published 2019)

Tests used:
[1] = system: PKD1^FLEX-CreER2; assay: Tamoxifen activation of PKD1^FLEX-CreER2 cassette in LLC-PK1 cells in vitro; format: cell-based, pig; conditions: after tamoxifen treatment, LLC-PK1 targeted cells, expected
Procedure: Testing of PKD1^FLEX-CreER2 is conducted using the immortalized pig kidney cell line, LLC-PK1. Prior to conducting studies with the cassette integrated into cells, the efficacy of Cre recombination is optimized in transient transfections +/− tamoxifen and measure recombination by qPCR.
In vitro testing in the LLC-PK1, PKD1^FLEX-CreER2 targeted cells: The model cells developed above are treated in triplicate with 3 dosages of tamoxifen, and compared to non-treated cells. Percent recombination of the PKD1^FLEX-CreER2 cassette is analyzed visually for the loss of EGFP using FACS and molecularly by quantitative PCR for molecular quantification of recombination. Splicing of the PKD1^FLEX-CreER2 cassette is analyzed before and after recombination by RT-PCR from exon 14 to exon 16, followed by Sanger sequencing and qRT-PCR using primers spanning exon junctions of E14-15 and E15-16 respectively. Finally, induced and non-induced populations are compared at the protein level by western blotting.

[2] = system: porcine PKHD1; assay: Surveyor assay (cutting) and RFLP analysis (HDR) in transfected pig fibroblasts; format: cell-based; conditions: for activity among the TALENs and CRISPR gRNAs tested for the target: comparison of reagents developed for the same target; for cutting, In Fibroblast Cells Incubated at 30° / RFLP, In Fibroblast Cells Incubated at 30° / cutting, In Fibroblast Cells Incubated at 37° / RFLP, In Fibroblast Cells Incubated at 37°: pig fibroblasts; for cutting, In Fibroblast Cells Incubated at 30° / RFLP, In Fibroblast Cells Incubated at 30°: 30 degrees C; for cutting, In Fibroblast Cells Incubated at 30° / cutting, In Fibroblast Cells Incubated at 37°: three days recovery, Surveyor assay; for RFLP, In Fibroblast Cells Incubated at 30° / RFLP, In Fibroblast Cells Incubated at 37°: with HDR template, RFLP assay; for cutting, In Fibroblast Cells Incubated at 37° / RFLP, In Fibroblast Cells Incubated at 37°: 37 degrees C
Description: FIG. 12A, FIG. 12B: T36M introgression in cells. […] The region is highly conserved and threonine acid at position 36 in humans corresponds to residue 36 in pigs. Threonine acid 36 is identified in pig genomic DNA sequence, and […] (maroon arrow) are designed to cleave near T36. FIG. 12A also discloses SEQ ID NO: 118. […] It should be noted that position 3553 in pigs is a Valine residue and not pathogenic; henceforth this mutation will be referred to as either I3553T or V3553T. The cells were recovered for three days at 30 and 37 degrees C. prior to quantification of activity by the Surveyor assay and RFLP analysis with the Nsp1 restriction enzyme. The arrowheads depict the expected size of cleavage products for the Surveyor assay or RFLP assay.
A number of quality sites for TALENs and CRISPRs are ideally positioned for HDR mediated introgression the T36M mutation (Table 7, Table 8, Table 9). The assembled reagents are tested in pig fetal fibroblasts and embryos using standard operating procedures (SOPs) (FIG. 9B). Using these methods, hundreds of loci in pig and cattle have been successfully targeted, with efficiencies ranging from 5-75% in cultured cells.
For introgression of T36M into the porcine genome, two CRISPR Cas9 gRNAs and TALENs were tested in pig fibroblasts and embryos to optimize conditions (FIG. 12A, FIG. 12B, Table 7, Table 8, Table 9).

[3] = system: porcine PKHD1; assay: Cytoplasmic injection of parthenogenetic pig embryos, single blastocyst RFLP assay and sequencing; format: cell-based; conditions: for RFLP In Embryos: pig embryos, with HDR template; for NHEJ n (%): R3229Q introgression
Procedure: The best performing combinations of TALENs and CRISPRs identified above, are evaluated in vitro by injection of in vitro matured (IVM) parthenogenetic pig embryos (FIG. 9C). […] In a small pilot study targeting porcine PDX1, 80% of alleles injected with a TALEN dosage of 40 ng/μl were able to be mutated, with nearly half of those directed to a particular edit by a homology template (FIG. 11B). FIG. 11A illustrates the steps required in production of in vitro matured pig embryos for microinjection. FIG. 11B illustrates the difference in percent success which using different concentrations of editing reagents for the PDX1 gene. A similar dosage escalation study is used to optimize for T36M introgression that balances survival of embryos in vitro with editing efficiency.
HDR efficiency was inversely associated with Cas9 dosage (50 vs 80% HDR) from highest to lowest concentration (Table 12 and FIG. 13A) likely a result of hyperactive cutting in the high concentration group. The fidelity of HDR events was further confirmed by sequencing (FIG. 13B) which confirms that the wild type triplet “ACA” coding, for threonine has been converted to “ATG” coding for methionine (FIG. 9A) using the template HDR sequence. Overall, condition C3, 25 ng/ul of Cas9, 12.5 ng/ul of gRNA and 50 ng/μl of ssHDR, was optimal for both blastocyst formation rate and HDR activity. If this site proves problematic, alternative missense mutations commonly observed in more than one family of ARPKD patients, such as I3553T, I222V, P805L or R3229Q are introgressed.
By the same process as Example 8, R3229Q was engineered into the PKHD1 gene. R3229Q is the equivalent mutation to R3240Q in humans (FIG. 16A), which in a homozygous state causes moderate ARPKD. Also, as noted previously, the annotation of PKHD1 has changed since initial contigs placed R3240Q in exon 58 versus exon 65. Also, R3240Q in humans, maps to different residue numbers in pigs based on transcript selected. […] Injections into parthenogenetic embryos were performed as before, with two conditions using a ssODN as the homology template ssPKHD1 65.1 3240 R to Q (Table 10); C1 (100/50/50) (Cas9 mRNA/gRNA65.1/homology template, all ng/μl) and C3 (25/12.5/50) (Cas9 mRNA/gRNA65.1/homology template, all ng/μl) (Table 9). […] HDR was also prevalent in the C3 condition (75%) whereas total mutation rate (indels+HDR alleles) was 100 and 95% for C1 and C3 respectively. […] Blastocyst 3.19 is homozygous for R3229Q while 3.12 has one HDR allele and one indel allele.

[4] = system: porcine PKHD1; assay: Injection of in vivo produced porcine embryos, genotype of born piglets; set-up: species or system pig; conditions: 22 piglets, litters 115 and 116, condition C3
Procedure: Founder animals for ARPKD were produced using the process of Example 8 with minor changes. The T36M reagents (ssPKHD1 CRISPR 3.1 and template ssPKHD1 3.1 36 T to M) were injected into in vivo produced porcine embryos at the 1 or 2 cell stage. Condition C3 was used for injection and the 60 resulting embryos were split equally between to synchronized recipients. A total of 22 piglets were born, 14 from one surrogate (litter ID 115) and 8 from the other (litter ID 116). Newborn piglets were visually assessed for fitness and four, 115-1, 115-2, 115-3 and 115-8 were reluctant to suckle from their mothers and had visible abdominal distension (Table 14). […] Each of the remaining piglets was analyzed for a visible phenotype at 20 days of age (Table 14). Genotype of the piglet was a strong indicator of disease severity as 115-1, 115-2, 115-3 and 115-8 are predicted to have null mutations on each allele while mild cases had some combination of T36M mutation or single allele mutations (Table 14). Overall, ˜55% of offspring were mutant with 5 showing T36M mutations (Table 15). This rate is lower than observed above. A key difference is the embryos source. Parthenogenetic embryos were used in previous experiments where timing of activation is tightly controlled. In contrast, this experiment used in vivo produced embryos (bred sows, embryos collected ˜18 hours post fertilization) where timing is variable. However, the hypothesis that a variety of disease alleles and severities could be produced in a single litter was confirmed.

[5] = C1 (100/50/50) ng/μl Cas9/gRNA/ssODN, T36M template
[6] = C2 (50/25/50) ng/μl Cas9/gRNA/ssODN, T36M template
[7] = C3 (25/12.5/50) ng/μl Cas9/gRNA/ssODN, T36M template

| Compound | activity among the TALENs and CRISPR gRNAs tested for the target [2] | cutting, In Fibroblast Cells Incubated at 30° [2] | RFLP, In Fibroblast Cells Incubated at 30° [2] | cutting, In Fibroblast Cells Incubated at 37° [2] | RFLP, In Fibroblast Cells Incubated at 37° [2] | RFLP In Embryos [3] | also measured |
| --- | --- | --- | --- | --- | --- | --- | --- |
| CC/C(=C(\c1ccccc1)c1ccc(OCCN(C)C)cc1)c1ccccc1 [tamoxifen] |  |  |  |  |  |  | activation of the integrated PKD1^FLEX-CreER2 cassette [1]: > 80% |
| ssPKHD1 CRISPR 3.1: CRISPR guide RNA (SEQ ID NO: 103) targeting exon 3 of porcine PKHD1, used with Cas9 mRNA and T36M HDR template (guide GGATTACCGTGTTCTTCGATGG; chemistry not given here) | greatest activity in cells | 0% cutting | RFLP detected, too | 30.8% cutting | RFLP 44.7% | 80% RFLP | RFLP, In Fibroblast Cells Incubated at 37° ([2]; listed as CRISPR 3.1): up to 44.7%; Mutated n (%) [3, 5]: 17 (94.4%); NHEJ^− n (%) [3, 5]: 7 (38.8%); HDR^+ n (%) [3, 6]: 11 (55.0%); Mutated n (%) [3, 6]: 19 (95.0%); NHEJ^− n (%) [3, 6]: 8 (40.0%); Mutated n (%) [3, 7]: 19 (95.0%); NHEJ^− n (%) [3, 7]: 3 (15.0%); embryos mutated ([3]; CRISPR/Cas9 dosage of 25-100 ng/μl): Up to 95%; blastocyst formation rate (toxicity by embryo development analysis) ([3]; cytoplasmic injection with HDR oligo at C1, C2, C3, highest in C3): high in each group; Heterozygous T36M % (number) [4]: 9% (2/22); Homozygous T36M % (number) [4]: 13.6% (3/22); Wild type % (number) [4]: 45.5% (10/22) |
| ssPKHD1 CRISPR 3.2: CRISPR guide RNA (SEQ ID NO: 104) targeting exon 3 of porcine PKHD1 (guide GCAGCCTCGCAGGGGGAACATGG; chemistry not given here) |  | 0% cutting at 30 | RFLP detected, too | 0% cutting at 37 | RFLP detected, too | 0% RFLP |  |
| ssPKHD1 CRISPR 65.1: CRISPR guide RNA (SEQ ID NO: 105) for R3229Q (human R3240Q) introgression into porcine PKHD1 (guide GGGGTCGAGTTGGTATATTGTGG; chemistry not given here) | greatest activity | Cutting detected, too | 7.3% RFLP | Cutting detected, too | 11% RFLP | 89% | NHEJ n (%) ([3]; C1 (100/50/50) ng/μl): 2 (10.5%); NHEJ n (%) ([3]; C3 (25/12.5/50) ng/μl): 4 (15.0%) |
